Test results from patent US20250313574A1, “SIALIC ACID DERIVATIVES AND METHODS OF USING SAME” (EISAI R&D MANAGEMENT CO., LTD., priority 2022, published 2025).

Legend:
[1] = target: Recombinant Human Siglec-3/CD33 protein (His-CD33) (Homo sapiens (Human), UniProt P20138); assay: Differential scanning fluorimetry (DSF) thermal shift assay; assay type: binding; details: thermal melt shift of 0.5 μM CD33 protein with 50 μM compound
[2] = target: Recombinant human CD33 protein (Homo sapiens (Human), UniProt P20138); assay: CD33 competitive binding assay for HTS drug screen (fluorescent multivalent sialic acid probe)
Recombinant human CD33 protein, sequence (P20138 18-259): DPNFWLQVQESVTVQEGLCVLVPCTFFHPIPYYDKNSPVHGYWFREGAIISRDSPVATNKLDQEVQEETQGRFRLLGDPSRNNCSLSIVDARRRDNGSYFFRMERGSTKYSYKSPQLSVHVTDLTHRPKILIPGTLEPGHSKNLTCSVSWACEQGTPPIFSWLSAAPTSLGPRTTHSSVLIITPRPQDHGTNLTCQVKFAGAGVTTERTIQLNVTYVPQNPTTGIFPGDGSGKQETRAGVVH
In short: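 Recombinant human CD33, coated overnight at 4° C from 10 μg/ml in pH 5.5 acetate, was preincubated briefly with compound. It was then exposed to a multivalent neutravidin/FITC/sialic acid analog A-375 probe (final 5 μM neutravidin, 15 μM A-375, 5 μM FITC) for 30 min at room temperature. After washing, bound FITC fluorescence was read.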

Recombinant Human Siglec-3/CD33 protein (His-CD33), sequence (P20138 18-259): as above

| Compound | DSF (dTmD) [1] | EC50 [2] [nM] |
| --- | --- | --- |
| CC(=O)N[C@H]1[C@H]([C@H](O)[C@H](O)CNC(=O)c2ccc3c(cnn3C)c2)O[C@@](CCN2CCOC[C@@]23CCN(C(=O)OC(C)(C)C)C3)(C(=O)O)C[C@@H]1O [A-124] | 13.4 | 28 |
| CC(=O)N[C@H]1[C@H]([C@H](O)[C@H](O)CNC(=O)c2ccc3[nH]nc(C)c3c2)O[C@@](CCN2CCOC[C@@]23CCN(C(=O)OC(C)(C)C)C3)(C(=O)O)C[C@@H]1O [A-125] | 13.3 | 23 |
| CC(=O)N[C@H]1[C@H]([C@H](O)[C@H](O)CNC(=O)c2cnc3[nH]ncc3c2)O[C@@](CCN2CCOC[C@@]23CCN(C(=O)OC(C)(C)C)C3)(C(=O)O)C[C@@H]1O [A-126] | 11.2 | 50 |
| CC(=O)N[C@H]1[C@H]([C@H](O)[C@H](O)CNC(=O)c2cnc3[nH]nc(C)c3c2)O[C@@](CCN2CCOC[C@@]23CCN(C(=O)OC(C)(C)C)C3)(C(=O)O)C[C@@H]1O [A-127] | 11.7 | 59 |
| CC(=O)N[C@H]1[C@H]([C@H](O)[C@H](O)CNC(=O)c2ccc3[nH]nc(F)c3c2)O[C@@](CCN2CCOC[C@@]23CCN(C(=O)OC(C)(C)C)C3)(C(=O)O)C[C@@H]1O [A-128] | 11.5 | 50 |
| CC(=O)N[C@H]1[C@H]([C@H](O)[C@H](O)CNC(=O)c2ccc3[nH]ccc3c2)O[C@@](CCN2CCOC[C@@]23CCN(C(=O)OC(C)(C)C)C3)(C(=O)O)C[C@@H]1O [A-129] | 15.0 | 10 |
| CC(=O)N[C@H]1[C@H]([C@H](O)[C@H](O)CNC(=O)c2ccc(F)c(Br)c2)O[C@@](CCN2CCOC[C@@]23CCN(C(=O)OC(C)(C)C)C3)(C(=O)O)C[C@@H]1O [A-132] | 12.4 | 51 |
| CC(=O)N[C@H]1[C@H]([C@H](O)[C@H](O)CNC(=O)c2cc(Br)[nH]n2)O[C@@](CCN2CCOC[C@@]23CCN(C(=O)OC(C)(C)C)C3)(C(=O)O)C[C@@H]1O [A-133] | 11.4 | 46 |
| CC(=O)N[C@H]1[C@H]([C@H](O)[C@H](O)CNC(=O)c2cc(C)c3[nH]c(CO)cc3c2)O[C@@](CCN2CCOC[C@@]23CCN(C(=O)OC(C)(C)C)C3)(C(=O)O)C[C@@H]1O [A-134] | 15.8 | 14 |
| CC(=O)N[C@H]1[C@H]([C@H](O)[C@H](O)CNC(=O)c2ccc3[nH]cnc3c2)O[C@@](CCN2CCOC[C@@]23CCN(C(=O)OC(C)(C)C)C3)(C(=O)O)C[C@@H]1O [A-135] | 9.6 | 101 |
| CC(=O)N[C@H]1[C@H]([C@H](O)[C@H](O)CNC(=O)c2cn(C)nc2C)O[C@@](CCN2CCOC[C@@]23CCN(C(=O)OC(C)(C)C)C3)(C(=O)O)C[C@@H]1O [A-136] | 6.5 | 440 |
| CC(=O)N[C@H]1[C@H]([C@H](O)[C@H](O)CNC(=O)c2ccc3occc3c2)O[C@@](CCN2CCOC[C@@]23CCN(C(=O)OC(C)(C)C)C3)(C(=O)O)C[C@@H]1O [A-137] | 12.7 | 76 |
| CC(=O)N[C@H]1[C@H]([C@H](O)[C@H](O)CNC(=O)c2ccc3c(=O)n(C)cnc3c2)O[C@@](CCN2CCOC[C@@]23CCN(C(=O)OC(C)(C)C)C3)(C(=O)O)C[C@@H]1O [A-138] | 6.6 | 600 |
| CC(=O)N[C@H]1[C@H]([C@H](O)[C@H](O)CNC(=O)c2c[nH]c(C)n2)O[C@@](CCN2CCOC[C@@]23CCN(C(=O)OC(C)(C)C)C3)(C(=O)O)C[C@@H]1O [A-139] | 6.2 | 610 |
| CC(=O)N[C@H]1[C@H]([C@H](O)[C@H](O)CNC(=O)c2nc(C)oc2C)O[C@@](CCN2CCOC[C@@]23CCN(C(=O)OC(C)(C)C)C3)(C(=O)O)C[C@@H]1O [A-140] | 7.5 | 350 |
| CC(=O)N[C@H]1[C@H]([C@H](O)[C@H](O)CNC(=O)c2cc(C)c(C(N)=O)c(C)c2)O[C@@](CCN2CCOC[C@@]23CCN(C(=O)OC(C)(C)C)C3)(C(=O)O)C[C@@H]1O [A-141] | 7.0 | 350 |
| CC(=O)N[C@H]1[C@H]([C@H](O)[C@H](O)CNC(=O)c2ccc(-c3ncn[nH]3)cc2)O[C@@](CCN2CCOC[C@@]23CCN(C(=O)OC(C)(C)C)C3)(C(=O)O)C[C@@H]1O [A-142] | 6.4 | 340 |
| CC(=O)N[C@H]1[C@H]([C@H](O)[C@H](O)CNC(=O)c2ccc(N3CCN(C)CC3)cc2)O[C@@](CCN2CCOC[C@@]23CCN(C(=O)OC(C)(C)C)C3)(C(=O)O)C[C@@H]1O [A-143] | 7.8 | 334 |
| CC(=O)N[C@H]1[C@H]([C@H](O)[C@H](O)CNC(=O)c2ccc(C(F)(F)F)c(C)c2)O[C@@](CCN2CCOC[C@@]23CCN(C(=O)OC(C)(C)C)C3)(C(=O)O)C[C@@H]1O [A-144] | 11.0 | 230 |

| Compound | DSF (dTmD) [1] | EC50 [2] [nM] |
| --- | --- | --- |
| CC(=O)N[C@H]1[C@H]([C@H](O)[C@H](O)CNC(=O)c2ccc(C)c(C(F)(F)F)c2)O[C@@](CCN2CCOC[C@@]23CCN(C(=O)OC(C)(C)C)C3)(C(=O)O)C[C@@H]1O [A-145] | 9.6 | 610 |
| CC(=O)N[C@H]1[C@H]([C@H](O)[C@H](O)CNC(=O)c2ccc(C(F)(F)F)c(O)c2)O[C@@](CCN2CCOC[C@@]23CCN(C(=O)OC(C)(C)C)C3)(C(=O)O)C[C@@H]1O [A-146] | 10.6 | 262 |
| CC(=O)N[C@H]1[C@H]([C@H](O)[C@H](O)CNC(=O)c2ccc(O)c(C(F)(F)F)c2)O[C@@](CCN2CCOC[C@@]23CCN(C(=O)OC(C)(C)C)C3)(C(=O)O)C[C@@H]1O [A-147] | 10.6 | 127 |
| COc1cc(C(=O)NC[C@@H](O)[C@@H](O)[C@@H]2O[C@@](CCN3CCOC[C@@]34CCN(C(=O)OC(C)(C)C)C4)(C(=O)O)C[C@H](O)[C@H]2NC(C)=O)cc(OC)c1OC [A-148] | 9.9 | 197 |
| CC(=O)N[C@H]1[C@H]([C@H](O)[C@H](O)CNC(=O)c2ccc(C)c(F)c2)O[C@@](CCN2CCOC[C@@]23CCN(C(=O)OC(C)(C)C)C3)(C(=O)O)C[C@@H]1O [A-149] | 10.7 | 133 |
| CC(=O)N[C@H]1[C@H]([C@H](O)[C@H](O)CNC(=O)c2ccc3c(c2)N(C)C(=O)CO3)O[C@@](CCN2CCOC[C@@]23CCN(C(=O)OC(C)(C)C)C3)(C(=O)O)C[C@@H]1O [A-150] | 9.6 | 219 |
| CC(=O)N[C@H]1[C@H]([C@H](O)[C@H](O)CNC(=O)c2ccc3cn[nH]c3c2)O[C@@](CCN2CCOC[C@@]23CCN(C(=O)OC(C)(C)C)C3)(C(=O)O)C[C@@H]1O [A-151] | 8.9 | 206 |
| CC(=O)N[C@H]1[C@H]([C@H](O)[C@H](O)CNC(=O)c2ccc(O)c(NC=O)c2)O[C@@](CCN2CCOC[C@@]23CCN(C(=O)OC(C)(C)C)C3)(C(=O)O)C[C@@H]1O [A-152] | 7.4 | 510 |
| CC(=O)N[C@H]1[C@H]([C@H](O)[C@H](O)CNC(=O)c2ccc3nsnc3c2)O[C@@](CCN2CCOC[C@@]23CCN(C(=O)OC(C)(C)C)C3)(C(=O)O)C[C@@H]1O [A-153] | 10.1 | 196 |
| CC(=O)N[C@H]1[C@H]([C@H](O)[C@H](O)CNC(=O)c2cc(C)n(C)n2)O[C@@](CCN2CCOC[C@@]23CCN(C(=O)OC(C)(C)C)C3)(C(=O)O)C[C@@H]1O [A-154] | 9.3 | 137 |
| CCc1cccc(C(=O)NC[C@@H](O)[C@@H](O)[C@@H]2O[C@@](CCN3CCOC[C@@]34CCN(C(=O)OC(C)(C)C)C4)(C(=O)O)C[C@H](O)[C@H]2NC(C)=O)c1 [A-155] | 10.1 | 200 |
| CC(=O)N[C@H]1[C@H]([C@H](O)[C@H](O)CNC(=O)c2cc(C)[nH]n2)O[C@@](CCN2CCOC[C@@]23CCN(C(=O)OC(C)(C)C)C3)(C(=O)O)C[C@@H]1O [A-156] | 8.9 | 138 |
| CC(=O)N[C@H]1[C@H]([C@H](O)[C@H](O)CNC(=O)c2cc(Cl)[nH]n2)O[C@@](CCN2CCOC[C@@]23CCN(C(=O)OC(C)(C)C)C3)(C(=O)O)C[C@@H]1O [A-157] | 10.3 | 80 |
| CC(=O)N[C@H]1[C@H]([C@H](O)[C@H](O)CNC(=O)c2coc(C)c2)O[C@@](CCN2CCOC[C@@]23CCN(C(=O)OC(C)(C)C)C3)(C(=O)O)C[C@@H]1O [A-158] | 10.4 | 133 |
| CC(=O)N[C@H]1[C@H]([C@H](O)[C@H](O)CNC(=O)c2cc(Cl)c(F)c(Cl)c2)O[C@@](CCN2CCOC[C@@]23CCN(C(=O)OC(C)(C)C)C3)(C(=O)O)C[C@@H]1O [A-159] | 11.4 | 238 |
| CC(=O)N[C@H]1[C@H]([C@H](O)[C@H](O)CNC(=O)c2cc(C)oc2C(F)(F)F)O[C@@](CCN2CCOC[C@@]23CCN(C(=O)OC(C)(C)C)C3)(C(=O)O)C[C@@H]1O [A-160] | 8.0 | 680 |
| CC(=O)N[C@H]1[C@H]([C@H](O)[C@H](O)CNC(=O)c2cn[nH]c2)O[C@@](CCN2CCOC[C@@]23CCN(C(=O)OC(C)(C)C)C3)(C(=O)O)C[C@@H]1O [A-161] | 5.9 | 1080 |
| CCC/C(C)=C/C(=O)NC[C@@H](O)[C@@H](O)[C@@H]1O[C@@](CCN2CCOC[C@@]23CCN(C(=O)OC(C)(C)C)C3)(C(=O)O)C[C@H](O)[C@H]1NC(C)=O [A-162] | 4.8 | 4210 |
| C/C=C/C=C/C(=O)NC[C@@H](O)[C@@H](O)[C@@H]1O[C@@](CCN2CCOC[C@@]23CCN(C(=O)OC(C)(C)C)C3)(C(=O)O)C[C@H](O)[C@H]1NC(C)=O [A-163] | 5.7 | 700 |
